Tests used:
Carboplatin = compound: C1CC(C1)(C(=O)[O-])C(=O)[O-].N.N.[Pt+2] [Carboplatin]; conditions: max 10 µM
Method in brief: (§1)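 Cancer cell lines were plated in 1536-well plates in 7.5 μl of DMEM/F12 or RPMI with 10% FBS and kept 24 hours at 37°C and 5% CO2 before 72 hours of dosing, with final DMSO typically 0.2%. CellTiter-Glo 2.0 luminescence measured viability, scaled between blank-well and DMSO-well means. Dose responses were fitted to a two-parameter logistic curve with a non-linear mixed effects model. This fit gives the single-agent IC50.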

AZD5363 = compound: C1CN(CCC1(C(=O)N[C@@H](CCO)C2=CC=C(C=C2)Cl)N)C3=NC=NC4=C3C=CN4 [AZD5363]; conditions: max 10 µM
Method in brief: as §1

AZD1775 = compound: C=CCn1c(=O)c2cnc(Nc3ccc(N4CCN(C)CC4)cc3)nc2n1-c1cccc(C(C)(C)O)n1 [AZD1775]; conditions: max 3 µM
Method in brief: as §1

Trametinib = compound: CC(=O)Nc1cccc(-n2c(=O)n(C3CC3)c(=O)c3c(Nc4ccc(I)cc4F)n(C)c(=O)c(C)c32)c1 [Trametinib]; conditions: max 1 µM
Method in brief: as §1

Paclitaxel = compound: CC(=O)O[C@H]1C(=O)[C@@]2(C)[C@H]([C@H](OC(=O)c3ccccc3)[C@]3(O)C[C@H](OC(=O)[C@H](O)[C@@H](NC(=O)c4ccccc4)c4ccccc4)C(C)=C1C3(C)C)[C@]1(OC(C)=O)CO[C@@H]1C[C@@H]2O [Paclitaxel]; conditions: max 3 µM
Method in brief: as §1

Palbociclib = compound: CC(=O)c1c(C)c2cnc(Nc3ccc(N4CCNCC4)cn3)nc2n(C2CCCC2)c1=O [Palbociclib]; conditions: max 10 µM
Method in brief: as §1

AZD1390 = compound: CC(C)n1c(=O)n(C)c2cnc3cc(F)c(-c4ccc(OCCCN5CCCCC5)nc4)cc3c21 [AZD1390]; conditions: max 0.3 µM
Method in brief: as §1

Venetoclax = compound: CC1(C)CCC(CN2CCN(c3ccc(C(=O)NS(=O)(=O)c4ccc(NCC5CCOCC5)c([N+](=O)[O-])c4)c(Oc4cnc5[nH]ccc5c4)c3)CC2)=C(c2ccc(Cl)cc2)C1 [Venetoclax]; conditions: max 1 µM
Method in brief: as §1

Dasatinib = compound: CC1=C(C(=CC=C1)Cl)NC(=O)C2=CN=C(S2)NC3=CC(=NC(=N3)C)N4CCN(CC4)CCO [Dasatinib]; conditions: max 2 µM
Method in brief: as §1

SG3199 = compound: CC1=CN2[C@@H](C1)C=NC3=CC(=C(C=C3C2=O)OC)OCCCCCOC4=C(C=C5C(=C4)N=C[C@@H]6CC(=CN6C5=O)C)OC [SG3199]; conditions: max 0.001 µM
Method in brief: as §1

AZD2811 = compound: CCN(CCO)CCCOc1ccc2c(Nc3cc(CC(=O)Nc4cccc(F)c4)[nH]n3)ncnc2c1 [AZD2811]; conditions: max 1 µM
Method in brief: as §1

SN-38 = compound: CCc1c2c(nc3ccc(O)cc13)-c1cc3c(c(=O)n1C2)COC(=O)[C@]3(O)CC [SN-38]; conditions: max 0.3 µM
Method in brief: as §1

AZD0156 = compound: CN(C)CCCOc1ccc(-c2ccc3ncc4c(c3c2)n(C2CCOCC2)c(=O)n4C)cn1 [AZD0156]; conditions: max 3 µM
Method in brief: as §1

AZD4320 = compound: CN(CC[C@H](CSC1=CC=CC=C1)NC2=C(C=C(C=C2)S(=O)(=O)NC(=O)C3=CC=C(C=C3)N4CCC(CC4)[C@H](C5=CC=CC=C5C6=CC=C(C=C6)Cl)O)S(=O)(=O)C(F)(F)F)CCO [AZD4320]; conditions: max 1 µM
Method in brief: as §1

Alisertib = compound: COc1cc(Nc2ncc3c(n2)-c2ccc(Cl)cc2C(c2c(F)cccc2OC)=NC3)ccc1C(=O)O [Alisertib]; conditions: max 10 µM
Method in brief: as §1

Etoposide = compound: COc1cc([C@@H]2c3cc4c(cc3[C@@H](O[C@@H]3O[C@@H]5CO[C@@H](C)O[C@H]5[C@H](O)[C@H]3O)[C@H]3COC(=O)[C@H]23)OCO4)cc(OC)c1O [Etoposide]; conditions: max 10 µM
Method in brief: as §1

Gefitinib = compound: COc1cc2ncnc(Nc3ccc(F)c(Cl)c3)c2cc1OCCCN1CCOCC1 [Gefitinib]; conditions: max 10 µM
Method in brief: as §1

Prexasertib = compound: COc1cccc(OCCCN)c1-c1cc(Nc2cnc(C#N)cn2)n[nH]1 [Prexasertib]; conditions: max 1 µM
Method in brief: as §1

Doxorubicin = compound: COc1cccc2c1C(=O)c1c(O)c3c(c(O)c1C2=O)C[C@@](O)(C(=O)CO)C[C@@H]3O[C@H]1C[C@H](N)[C@H](O)[C@H](C)O1 [Doxorubicin]; conditions: max 1 µM
Method in brief: as §1

AZD5153 = compound: COc1nnc2ccc(N3CCC(c4ccc(OCCN5CCN(C)C(=O)[C@H]5C)cc4)CC3)nn12 [AZD5153]; conditions: max 1 µM
Method in brief: as §1

Lapatinib = compound: CS(=O)(=O)CCNCc1ccc(-c2ccc3ncnc(Nc4ccc(OCc5cccc(F)c5)c(Cl)c4)c3c2)o1 [Lapatinib]; conditions: max 10 µM
Method in brief: as §1

AZD8186 = compound: C[C@@H](Nc1cc(F)cc(F)c1)c1cc(C(=O)N(C)C)cc2c(=O)cc(N3CCOCC3)oc12 [AZD8186]
Method in brief: as §1

Crizotinib = compound: C[C@@H](Oc1cc(-c2cnn(C3CCNCC3)c2)cnc1N)c1c(Cl)ccc(F)c1Cl [Crizotinib]; conditions: max 10 µM
Method in brief: as §1

Savolitinib = compound: C[C@@H](c1ccc2nccn2c1)n1nnc2ncc(-c3cnn(C)c3)nc21 [Savolitinib]; conditions: max 1 µM
Method in brief: as §1

AZD6738 = compound: C[C@@H]1COCCN1C2=NC(=NC(=C2)C3(CC3)[S@](=N)(=O)C)C4=C5C=CNC5=NC=C4 [AZD6738]; conditions: max 10 µM
Method in brief: as §1

AZD5991 = compound: Cc1c2c(nn1C)CSCc1cc(n(C)n1)CSc1cc(c3ccccc3c1)OCCCc1c(C(=O)O)n(C)c3c-2c(Cl)ccc13 [AZD5991]; conditions: max 1 µM
Method in brief: as §1

AZD7648 = compound: Cc1cc2ncnn2cc1Nc1ncc2c(n1)n(C1CCOCC1)c(=O)n2C [AZD7648]; conditions: max 10 µM
Method in brief: as §1

Taselisib = compound: Cc1nc(-c2cn3c(n2)-c2ccc(-c4cnn(C(C)(C)C(N)=O)c4)cc2OCC3)n(C(C)C)n1 [Taselisib]; conditions: max 10 µM
Method in brief: as §1

Selumetinib = compound: Cn1cnc2c(F)c(Nc3ccc(Br)cc3Cl)c(C(=O)NOCCO)cc21 [Selumetinib]; conditions: max 10 µM
Method in brief: as §1

SRA737 = compound: N#Cc1cnc(Nc2cc(NC[C@H]3CNCCO3)c(C(F)(F)F)cn2)cn1 [SRA737]; conditions: max 10 µM
Method in brief: as §1

MK-2206 = compound: NC1(c2ccc(-c3nc4ccn5c(=O)[nH]nc5c4cc3-c3ccccc3)cc2)CCC1 [MK-2206]; conditions: max 10 µM
Method in brief: as §1

Gemcitabine = compound: Nc1ccn([C@@H]2O[C@H](CO)[C@@H](O)C2(F)F)c(=O)n1 [Gemcitabine]; conditions: max 0.3 µM
Method in brief: as §1

[1] = compound: O=C(Nc1ccc2[nH]nc(-c3ccncc3)c2c1)[C@@H]1CCN(CC(=O)N2CCN(c3ccc(-c4ncccn4)cc3)CC2)C1; conditions: max 5 µM
Method in brief: as §1

Olaparib = compound: O=C(c1cc(Cc2n[nH]c(=O)c3ccccc23)ccc1F)N1CCN(C(=O)C2CC2)CC1 [Olaparib]; conditions: max 10 µM
Method in brief: as §1

5-Fluorouracil = compound: O=c1[nH]cc(F)c(=O)[nH]1 [5-Fluorouracil]; conditions: max 20 µM
Method in brief: as §1

Capivasertib = compound: C1CN(CCC1(C(=O)N[C@@H](CCO)C2=CC=C(C=C2)Cl)N)C3=NC=NC4=C3C=CN4 [Capivasertib]; conditions: max 10 µM
Method in brief: as §1

Cell Line	IC50, cell viability 72 h (Carboplatin)	IC50, cell viability 72 h (AZD5363)	IC50, cell viability 72 h (AZD1775)	IC50, cell viability 72 h (Trametinib)	IC50, cell viability 72 h (Paclitaxel)	IC50, cell viability 72 h (Palbociclib)	IC50, cell viability 72 h (AZD1390)	IC50, cell viability 72 h (Venetoclax)	IC50, cell viability 72 h (Dasatinib)	IC50, cell viability 72 h (SG3199)	IC50, cell viability 72 h (AZD2811)	IC50, cell viability 72 h (SN-38)	IC50, cell viability 72 h (AZD0156)	IC50, cell viability 72 h (AZD4320)	IC50, cell viability 72 h (Alisertib)	IC50, cell viability 72 h (Etoposide)	IC50, cell viability 72 h (Gefitinib)	IC50, cell viability 72 h (Prexasertib)	IC50, cell viability 72 h (Doxorubicin)	IC50, cell viability 72 h (AZD5153)	IC50, cell viability 72 h (Lapatinib)	IC50, cell viability 72 h (AZD8186; max 10 µM)	IC50, cell viability 72 h (Crizotinib)	IC50, cell viability 72 h (Savolitinib)	IC50, cell viability 72 h (AZD6738)	IC50, cell viability 72 h (AZD5991)	IC50, cell viability 72 h (AZD7648)	IC50, cell viability 72 h (Taselisib)	IC50, cell viability 72 h (Selumetinib)	IC50, cell viability 72 h (SRA737)	IC50, cell viability 72 h (MK-2206)	IC50, cell viability 72 h (Gemcitabine)	IC50, cell viability 72 h [1]	IC50, cell viability 72 h (Olaparib)	IC50, cell viability 72 h (5-Fluorouracil)	IC50, cell viability 72 h (Capivasertib)	IC50, cell viability 72 h (AZD8186; max 3 µM)
G-292-Clone-A141B1 (Osteosarcoma)	> 10 µM	> 10 µM	> 3 µM	> 1 µM	> 3 µM	> 10 µM	> 0.3 µM	> 1 µM	> 2 µM	> 0.001 µM	> 1 µM	> 0.3 µM	> 3 µM	> 1 µM	> 10 µM	> 10 µM	> 10 µM	> 1 µM	> 1 µM	> 1 µM	> 10 µM	> 10 µM	> 10 µM	> 1 µM	> 10 µM	> 1 µM	> 10 µM	1.16 µM	> 10 µM	> 10 µM	> 10 µM	> 0.3 µM	> 5 µM	> 10 µM	> 20 µM		
SW756 (Cervical Carcinoma)			> 3 µM	> 1 µM		> 10 µM	> 0.3 µM	> 1 µM	> 2 µM	> 0.001 µM	> 1 µM	0.0323 µM	> 3 µM	> 1 µM	> 10 µM		> 10 µM	> 1 µM	> 1 µM	> 1 µM	> 10 µM		> 10 µM	> 1 µM	> 10 µM	> 1 µM	> 10 µM	> 10 µM	> 10 µM		> 10 µM			> 10 µM		> 10 µM	> 3 µM
SUIT-2 (Pancreatic Carcinoma)			1.86 µM	0.478 µM		> 10 µM	> 0.3 µM	> 1 µM	> 2 µM	> 0.001 µM	> 1 µM	0.0326 µM	> 3 µM	> 1 µM	> 10 µM		> 10 µM	0.178 µM	> 1 µM	> 1 µM	> 10 µM		> 10 µM	> 1 µM	> 10 µM	> 1 µM	> 10 µM	> 10 µM	> 10 µM		> 10 µM			> 10 µM		> 10 µM	> 3 µM
SW780 (Bladder Carcinoma)			> 3 µM	> 1 µM		> 10 µM	> 0.3 µM	> 1 µM	> 2 µM	> 0.001 µM	> 1 µM	0.247 µM	> 3 µM	> 1 µM	> 10 µM		> 10 µM	> 1 µM	> 1 µM	> 1 µM	> 10 µM		> 10 µM	> 1 µM	> 10 µM	> 1 µM	> 10 µM	> 10 µM	> 10 µM		> 10 µM			> 10 µM		> 10 µM	> 3 µM
KM-H2 (Hodgkin's Lymphoma)			0.615 µM	> 1 µM		> 10 µM	> 0.3 µM	> 1 µM	> 2 µM	> 0.001 µM	> 1 µM	0.0488 µM	> 3 µM	> 1 µM	> 10 µM		> 10 µM	0.0291 µM	0.534 µM	> 1 µM	> 10 µM		> 10 µM	> 1 µM	4.62 µM	> 1 µM	> 10 µM	> 10 µM	> 10 µM		> 10 µM			> 10 µM		> 10 µM	> 3 µM
TGBC24TKB (Biliary Tract Carcinoma)			0.815 µM	0.933 µM		> 10 µM	> 0.3 µM	> 1 µM	> 2 µM	> 0.001 µM	0.923 µM	> 0.3 µM	> 3 µM	> 1 µM	1.86 µM		> 10 µM	0.0494 µM	> 1 µM	0.665 µM	8.01 µM		9.9 µM	> 1 µM	7.4 µM	> 1 µM	> 10 µM	0.561 µM	> 10 µM		> 10 µM			> 10 µM		> 10 µM	> 3 µM
